This note sets out measurements from article PMC10997663, “Mechano-sensitivity of β2-adrenoceptors enhances constitutive activation of cAMP generation that is inhibited by inverse agonists” (Communications Biology, 2024).

Assay [1] concerns the target T1, β2-adrenoceptor (β2AR) (Homo sapiens, UniProt P07550).
T1 construct: gene ADRB2; HiBiT-β2AR (N-terminal HiBiT tag), complemented with LgBiT
The assay can be described thus: NanoBRET saturation binding in live HEK293G cells. Type of assay: cell-based. On the technique in general: In BRET a luciferase serves as donor, and the signal depends on an acceptor being close.

Assay [2] has as its system β2-adrenoceptor (β2AR). The assay can be described thus: cells. The note with it: HEK293G, read-out: % of control remaining. Set-up: species or system HEK293G overexpressing TS-SNAP-β2AR; GloSensor cAMP luminescence; inverse agonist inhibition of the peak basal (mechanically stimulated) response. How it is done: (§1) Four inverse agonists were evaluated as inhibitors of the basal GloSensor^TM response in HEK293G cells overexpressing the TS-SNAP-β2AR (Fig. 3). […] Each inverse agonist was added immediately following an initial luminescence read at time zero. The plate therefore entered the PheraStar at time zero, was then removed for the addition of inverse agonist or HBSS and measurements were made again at t = 1 min and every minute thereafter. Values are mean ± SEM of five independent experiments.

The test system of assay [3] is β2-adrenoceptor (β2AR). The assay can be described thus: cells. Set-up: species or system HEK293G overexpressing TS-SNAP-β2AR; GloSensor cAMP luminescence; inverse agonist inhibition of the peak basal (mechanically stimulated) response. The note with it: HEK293G, read-out: % of control remaining. On the procedure: as §1
The source holds these as a separate data set.

By Kd is commonly meant the constant that tells how readily two partners part at equilibrium. A lower Kd goes with a tighter complex.

Read-outs that look alike come from different tables or passages of the source.

T1 sequence (P07550 whole entry): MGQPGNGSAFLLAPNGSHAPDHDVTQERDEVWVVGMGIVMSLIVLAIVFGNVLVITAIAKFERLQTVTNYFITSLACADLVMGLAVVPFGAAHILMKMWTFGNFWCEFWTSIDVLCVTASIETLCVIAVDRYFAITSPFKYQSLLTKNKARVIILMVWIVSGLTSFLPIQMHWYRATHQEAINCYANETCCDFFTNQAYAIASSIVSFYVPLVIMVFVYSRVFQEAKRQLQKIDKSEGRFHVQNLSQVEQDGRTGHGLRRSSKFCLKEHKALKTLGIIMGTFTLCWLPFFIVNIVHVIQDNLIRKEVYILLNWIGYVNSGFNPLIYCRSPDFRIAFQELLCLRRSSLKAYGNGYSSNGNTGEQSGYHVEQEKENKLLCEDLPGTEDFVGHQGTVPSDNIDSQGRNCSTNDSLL

Regarding `Cc1ccc(OCC(O)C(C)NCCNC(=O)CCNC(=O)CCNC(=O)CCCCCNC(=O)COc2ccc(C=CC3=[N+]4C(=Cc5ccc(-c6cccs6)n5[B-]4(F)F)C=C3)cc2)c2c1CCC2` (stereo not drawn) [ICI-118551-βAla-βAla-BODIPY-X-630/650], the Kd at β2-adrenoceptor (β2AR) [1] was determined as 0.0326 ± 0.00742 µM. As to `COc1ccccc1OCCNCC(O)COc1cccc2[nH]c3ccccc3c12` (stereo not drawn) [carvedilol], the activity at 10 µM is 41.1 ± 4.32% in the assay with β2-adrenoceptor (β2AR) [2] and 54 ± 10.6% with β2-adrenoceptor (β2AR) [3].
